Experimental data from patent US20230134059A1, “[…] AND METHODS FOR CORRECTING, SLOWING, REDUCING, AND/OR CONTROLLING THE PROGRESSION OF MYOPIA IN CONJUNCTION WITH USE OF ATROPINE OR RELATED COMPOUNDS” (Brien Holden Vision Institute Limited, priority 2020, published 2023).
Like-named read-outs stand apart in the source and are kept apart here.

Tests used:
[1] = test system: eye of a -2.00 D myope; experiment: Spherical aberration of combined spectacle lens and eye system after Atropine-induced pupil increase; type: in vivo; details: pupillary diameter increased from about 3 mm to about 6 mm with use of Atropine
Text: FIG. 1A illustrates a schematic plot of pupil diameters resulting from use of Atropine, a widely used muscarinic receptor antagonist and a pharmaceutical agent for myopia therapy. […] Considering FIG. 1A, it is observed that use of 0.01% Atropine which to date is the lowest concentration used for treatment of myopia in individuals, increases the photopic pupillary diameter by approximately 1 mm. Increasing the concentration to anywhere from 0.025% to 0.1% Atropine, increases the photopic pupil size from about 2 mm to about 3 mm. With the highest concentration of 0.5% Atropine, the increase in photopic pupil size was largest and at about 3 mm. An increase in pupil size increases aberrations of the eye. […] FIG. 1B illustrates the increase in higher order aberrations from 3rd to 6th order as determined by aberrometry for the myopic eye of an individual who has a distance refractive error of approximately −2.00 D. It is observed that there is a significant increase in aberrations with a larger pupil. An increase in the pupil size may result in a functional decrement in visual performance and one or more unwanted effects such as poorer visual performance, reduced contrast, blurred vision, increased glare and increased photophobia (sensitivity to light). […]

[2] = test system: myopic children aged 8-10 years; details: cited from earlier work
[3] = test system: eye of individuals treated for myopia; details: cited from earlier work
[4] = test system: children aged 6-12 years; details: concentrations greater than 0.1% Atropine; cited from earlier work
[5] = test system: myopia progression; details: Atropine eye drops 0.01% to 1.0%; cited from earlier work

In the case of `CN1[C@@H]2CC[C@H]1C[C@@H](OC(=O)C(CO)c1ccccc1)C2` (some centres unmarked) [Atropine], the “effective increase of spherical aberration of combined spectacle lens and eye system” value [1] is given as “about +0.50 D”, the “request photochromic progressive lenses, % of the time” value ([2]; atropine 0.01%) is given as 6% and the “request photochromic progressive lenses, % of the time” value ([2]; atropine 0.1%) is given as 61%. The “request photochromic progressive lenses, % of the time” value ([2]; atropine 0.5%) was 70%, the “increase in photopic pupillary diameter” value ([3]; 0.01% Atropine) was “approximately 1 mm” and the “increase in photopic pupil size” value ([3]; 0.5% Atropine (highest concentration)) was “about 3 mm”. The “reduction in amplitude of accommodation” value [4] was “more than half” and the “efficacy in slowing myopia, concentration dependent response” value [5] was “the higher the concentration, the greater the efficacy”.
